Data from patent publication US7678549B2, “Polyphenol inhibition of nucleoside diphosphate kinase-B activity and cancer metastasis” (Research Development Foundation, priority 2001, dated 2010).

Assays:
[1] = tested on: guinea pig thoracic aorta; assay: Thoracic aorta in organ bath, measurement of tension; details: for effect on norepinephrine-contracted aorta: added at peak norepinephrine contraction, endothelium present
[2] = biological target: T1, tumor cell-secreted nucleoside diphosphate kinase-B (NDPK-B, Nm23-H2) (Homo sapiens, UniProt P22392); assay: NDPK-B kinase activity assay (ADP to ATP with GTP as phosphoryl donor, luciferin-luciferase); format: biochemical; details: for Km: KM of NDPK-B for ADP in presence of the inhibitor; for Inhibition / IC50: inhibition of NDPK-B activity; for Inhibition: Yes/No, conc. tested differs per compound (0.3-10,000 μM); for inhibition of nucleoside diphosphate kinase-B activity (in words): summary of Table 1
T1 construct: Partially purified tumor cell-secreted nucleoside diphosphate kinase-B was incubated with ADP and GTP; endogenous in cells; host or cells: human tumor cell lines MDA-MB-435s, Calu-1, WiDr and PC-3; concentrated conditioned Krebs buffer
Description: The human tumors MDA-MB-435s (breast ductal carcinoma), Calu-1 (metastatic lung carcinoma), WiDr (colorectal carcinoma), and PC-3 (prostatic carcinoma) were grown to confluence in DMEM with 10% heat-inactivated FBS and antibiotics. Media was replaced with Krebs buffer (25 mM Hepes, pH 7.4) and incubated at 37° C. with gentle rocking for 4 hours. The supernatant was removed and concentrated by spin concentrators. Nucleoside diphosphate kinase activity of the retentate was assayed for activity and stored at −20° C.
Conversion of ADP to ATP, using GTP as the phosphoryl donor, was quantified using the Luciferin-Luciferase ATP assay as we have previously described (9). All necessary steps were taken to eliminate and account for interference between potential nucleoside diphosphate kinase-B inhibitors and the luciferase in the assay.
Partially purified tumor cell-secreted nucleoside diphosphate kinase-B was incubated with ADP and GTP in the presence of varying concentrations of putative nucleoside diphosphate kinase inhibitors or putative metastasis/angiogenesis inhibitors and the resulting ATP generated was measured by chemiluminescence using the luciferin-luciferase assay. […] Molecular modeling studies support these kinetic assumptions (data not shown).

[3] = tested on: Endothelial cells (CD31+ cells from guinea pig hearts); assay: Angiogenesis assay (endothelial tube formation on EHS matrix); format: cell-based; details: 30 and 100 μM, ~16 hrs, endothelial tubes on EHS matrix
Description: Endothelial cells (CD31^+ cells from guinea pig hearts) were plated on a matrix composed of basement proteins from the Engelbreth Holm-Swarm (EHS) mouse tumor. The cells were incubated for 16 hrs in Complete Dulbecco's Modified Eagle Medium (CDMEM) with added tea catechins ellagic acid (EA), epigallocatechin gallate (EGCG), and epicatechin gallate (ECG). Bright field images were taken using a Nikon phase-contrast microscope and a Pulnix digital camera. […] Data are representative of two experiments. Fluorescence activated cell sorting (FACS) was used to select cardiac endothelial cells positive for the PECAM marker CD31. Endothelial cells were plated on a matrix of basement proteins from the Engelbreth Holm-Swarm (EHS) mouse tumor. A complete DME media containing 10% FBS was used to maintain endothelial cultures. Differentiation of the cells into endothelial tubes was monitored in the presence and absence of the compounds of interest.

[4] = tested on: Human endothelial cells monolayer; assay: Tumor cell-induced paracellular holes in endothelial cell monolayers; format: cell-based; details: added at the same time as tumor cells
Description: Additional studies aimed at direct analysis of the ability of polyphenolic catechin gallates to prevent breast cancer cell entry into and exit from vessels has been addressed by examining the ability of tumor cells to induce paracellular passages in endothelial cells monolayers in culture. Human endothelial cells grown to confluence in culture can be examined as a model of capillary intravasation or extravasation as in cases of human breast cancer metastasis in vivo, by examining their ability to form large (>30 μm) holes between cells (paracellular holes). […] Addition of tumor cells on top of the monolayer at concentrations of 1 cancer cell per 10,000 endothelial cells leads to the wide-spread appearance of large paracellular holes in the monolayer within 15 minutes of application of tumor cells. […] The effect is complete at 30 μM epigallocatechin gallate. Careful quantification of the presence of paracellular holes is underway using video imaging.

caspase-3 = assay: Caspase-3 activity in staurosporine-treated endothelial cells; format: cell-based, guinea pig; details: for caspase-3 activity (DEVDase): near-confluent monolayers of endothelial cells, cyclodextrin as pretreatment before staurosporine; for caspase-3 fluorescent substrate pattern in intact cells: staurosporine for 3 hours, with or without cholesterol-altering agents
Description: Control cells received 0.05% DMSO final as a control for drug vehicle (n=4). Clarified supernatants from detergentsolubilized cells are assayed for DEVDase activity using the colorimetric caspase-3 substrate DEVD-pnitroaniline.
The sequestration of cholesterol from the plasma membrane can disrupt the localization of proteins within caveolae and lipid rafts, which has shown to interrupt signaling pathways.
Using a fluorescent substrate, caspase-3 activity can b e visualized in intact cell preparations.

T1 sequence (P22392 whole entry): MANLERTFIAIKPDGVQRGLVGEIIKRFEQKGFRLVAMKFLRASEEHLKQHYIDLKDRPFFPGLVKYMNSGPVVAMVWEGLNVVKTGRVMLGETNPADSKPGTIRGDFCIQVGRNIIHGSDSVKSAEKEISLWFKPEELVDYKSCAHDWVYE

Row | Inhibition [2] | inhibition of nucleoside diphosphate kinase-B activity (in words) [2] | IC50 [2] [mM] | Compound | also measured
1 | – | – | – | CSc1nc(N)c2ncn([C@@H]3O[C@H](COP(=O)(O)OP(=O)(O)OP(=O)(O)O)[C@@H](O)[C@H]3O)c2n1 [2-methyl thio-ATP] | effect on norepinephrine-contracted aorta [1]: completely relaxes
2 | Yes | relatively low potency | – | Nc1ncnc2c1nc(Cl)n2[C@@H]1O[C@@H]2COP(=O)(O)O[C@H]2[C@H]1O [8-Cl-cAMP] | Km [2]: 7.5 ± 1.5 µM; IC50 ([2]; value in mM): ~1 mM
3 | No | – | – | Cc1cn([C@H]2C[C@H](N=[N+]=[N-])[C@@H](CO)O2)c(=O)[nH]c1=O [AZT] | –
4 | Yes | – | 0.17 | O=C(O[C@@H]1Cc2c(O)cc(O)cc2O[C@@H]1c1ccc(O)c(O)c1)c1cc(O)c(O)c(O)c1 [ECG, epicatechin gallate] | inhibition of angiogenesis [3]: dose-dependent inhibition of angiogenesis
5 | Yes | inhibited | 0.15 | O=C(O[C@@H]1Cc2c(O)cc(O)cc2O[C@@H]1c1cc(O)c(O)c(O)c1)c1cc(O)c(O)c(O)c1 [EGCG, epigallocatechin gallate] | Km [2]: 9.7 ± 1.8 µM; formation of paracellular passages (holes >30 μm) induced by tumor cells ([4]; 1 to 100 μM): prevents the formation of the paracellular passages in a dose-dependent fashion; concentration at which prevention of paracellular passages is complete [4]: 30 µM; inhibition of angiogenesis [3]: dose-dependent inhibition of angiogenesis; effect on norepinephrine-contracted aorta [1]: further small contraction of the vessel followed by relaxation; effect on norepinephrine-contracted aorta ([1]; listed as epigallocatechin gallate): dramatic relaxation; effect on aorta in the absence of endothelium ([1]; norepinephrine-contracted, endothelium absent): both contraction and relaxation are lost; EGCG-dependent relaxation after pretreatment with L-NAME ([1]; pretreatment with nitric oxide synthase inhibitor L-NAME): blocks epigallocatechin gallate-dependent relaxation
6 | Yes | highest inhibitory effect | 0.023 | O=c1oc2c(O)c(O)cc3c(=O)oc4c(O)c(O)cc1c4c23 [Ellagic Acid, hexahydroxydiphenic acid dilactone] | inhibition of angiogenesis [3]: dose-dependent inhibition of angiogenesis
7 | Yes | relatively low potency | 0.5 | Nc1ncnc2c1ncn2[C@@H]1O[C@H](COP(=O)(O)OS(=O)(=O)O)[C@@H](OP(=O)(O)O)[C@H]1O [PAPS] | Km [2]: 7.1 ± 1.4 µM
8 | Yes | – | 0.6 | O=c1c(O)cccc2cc(O)c(O)c(O)c12 [Purpurogallin] | –
9 | No | – | – | Oc1ccc(C=Cc2cc(O)cc(O)c2)cc1 [Resveratrol, resveratrol] | –
10 | – | – | – | CN[C@@H]1C[C@H]2O[C@@](C)([C@@H]1OC)n1c3ccccc3c3c4c(c5c6ccccc6n2c5c31)C(=O)NC4 [Staurosporine] | caspase-3 activity (DEVDase) (caspase-3): induce caspase-3 activity; caspase-3 fluorescent substrate pattern in intact cells (caspase-3): punctate fluorescence
11 | – | – | – | NC[C@H](O)c1ccc(O)c(O)c1 [norepinephrine] | contraction of aorta ([1]; addition to resting vessel): contraction that is stable over time
12 | – | – | – | fillipin III | caspase-3 fluorescent substrate pattern in intact cells (caspase-3): global diffuse fluorescence
13 | – | – | – | β methyl-cyclodextrin | caspase-3 activity (DEVDase) (caspase-3): enhances enzymatic activity; caspase-3 fluorescent substrate pattern in intact cells (caspase-3): global diffuse fluorescence

Row | Compound | Inhibition [2] | inhibition of nucleoside diphosphate kinase-B activity (in words) [2] | IC50 [2] [mM] | also measured
14 | Oc1cc(O)c2c(c1)O[C@H](c1cc(O)c(O)c(O)c1)[C@H](O)C2 [EGC, epigallocatechin] | No | inhibited | – | –
15 | O=c1c(-c2ccc(O)cc2)coc2cc(O)cc(O)c12 [Genestein, genestein] | No | – | – | –
